From PubChem BioAssay AID1344 (Sanford-Burnham Center for Chemical Genomics, 2008) come the findings set out here.

For this assay, the system named is CSM14.1 thapsigargin death, annexin V/PI flow, 24 h. The assay can be described thus: rescue from thapsigargin-induced apoptotic death, late-stage follow-up, orthogonal assay for ER stress death inhibitor project, cell-based, undifferentiated CSM14.1, flow cytometry (AID 1344). The following applies: at 25 µM; active compounds read high.
Take `CCCOc1ccc(C2Nc3ccccc3NC3=C2C(=O)CC(c2ccc(OC)c(OC)c2)C3)cc1` (stereo unspecified): the survival was 92%.

In the case of `COc1ccc(C2CC(=O)C3=C(C2)Nc2ccccc2NC3c2cccc(C(F)(F)F)c2)cc1OC` (stereo unspecified), the survival is 95%.

With `O=C1CC(c2ccccc2)CC2=C1C(c1c(F)cccc1Cl)Nc1ccccc1N2` (stereo unspecified), the survival was 96%.

As to `CCOc1cccc(C2Nc3ccccc3NC3=C2C(=O)CC(c2ccc(OC)cc2)C3)c1` (stereo unspecified), the survival was 90%.

In the case of `CCOc1cc(C2Nc3ccccc3NC3=C2C(=O)CC(c2ccc(OC)cc2)C3)cc(Cl)c1O` (stereo unspecified), the survival was 93%.

In the case of `COc1ccc(C2CC(=O)C3=C(C2)Nc2ccccc2NC3c2cc(C)ccc2C)cc1` (stereo unspecified), the survival was 95%.

Take `COc1ccc(C2CC(=O)C3=C(C2)Nc2ccccc2NC3c2cccc(Br)c2)cc1OC` (stereo unspecified): the survival is 96%.

On to `COc1ccc(C2CC(=O)C3=C(C2)Nc2ccccc2NC3c2cccc(Oc3ccccc3)c2)cc1OC` (stereo unspecified), for which the survival was 95%.

Turning to `CSc1ccc(C2Nc3ccccc3NC3=C2C(=O)CC(c2ccccc2)C3)cc1` (stereo unspecified), the survival is 96%.

For the compound `CC1(C)CC(=O)C2=C(C1)Nc1ccccc1NC2c1ccc(-c2ccccc2)cc1` (stereo unspecified), the survival was 97%.

Take `COc1ccc(C2CC(=O)C3=C(C2)Nc2ccccc2NC3c2ccccc2C(F)(F)F)cc1OC` (stereo unspecified): the survival was 96%.
